# Data taken from patent publication US20130090476A1, “Thiazolylpiperidine Derivatives as Fungicides” (priority 2009, published 2013).
# Assays:
# [1] = physchem; details: pH 2.7
# [2] = test system: Phytophthora infestans; experiment: whole plant or invertebrate; type: in vivo; details: in Solanum lycopersicum, 168 h, read-out: efficacy
# [3] = logP determination by HPLC (EEC Directive 79/831 Annex V.A8), LC-MS
# [4] = pH 2.7, log P (pH2.7), pH 2.7, value given in the preparation text
# [5] = pH 2.7, logP, * acidic range, pH 2.7, 0.1% aqueous formic acid/acetonitrile
# [6] = pH 7.8, logP, ** neutral range, pH 7.8, 0.001 molar aqueous ammonium bicarbonate/acetonitrile
SMILES,chromatographic logP [1],pest or weed control at 500 ppm [2] [%],"chromatographic logP [3, 4]","chromatographic logP [3, 5]","chromatographic logP [3, 6]"
"CC(C)(C)OC(=O)N1CCC(c2nc(CSC(=N)N)cs2)CC1 [IX-1, Amino[({2-[1-(tert-butoxycarbonyl)piperidin-4-yl]-1,3-thiazol-4-yl}methyl)sulphanyl]methaniminium iodide]",1.44,–,–,–,–
"Cc1cc(C(F)(F)F)nn1CC(=O)N1CCC(c2nc(CSc3cccc4ccccc34)cs2)CC1 [Compound I-1, 2-[5-Methyl-3-(trifluoromethyl)-1H-pyrazol-1-yl]-1-(4-{4-[(1-naphthylsulphanyl)methyl]-1,3-thiazol-2-yl}piperidin-1-yl)ethanone]",–,≥ 70,4.33,4.33,–
"Cc1cc(C(F)(F)F)nn1CC(=O)N1CCC(c2nc(CS(=O)(=O)c3nnnn3-c3ccccc3)cs2)CC1 [Compound I-8, 2-[5-Methyl-3-(trifluoromethyl)-1H-pyrazol-1-yl]-1-[4-(4-{[(1-phenyl-1H-tetrazol-5-yl)sulphonyl]methyl}-1,3-thiazol-2-yl)piperidin-1-yl]ethanone]",–,≥ 70,3.1,3.07,–
"Cc1cc(C(F)(F)F)nn1CC(=S)N1CCC(c2nc(CSc3nnnn3-c3ccccc3)cs2)CC1 [Compound I-15, 2-[5-Methyl-3-(trifluoromethyl)-1H-pyrazol-1-yl]-1-[4-(4-{[(1-phenyl-1H-tetrazol-5-yl)sulphanyl]methyl}-1,3-thiazol-2-yl)piperidin-1-yl]ethanethione]",–,≥ 70,3.82,2.82,2.87
"Cc1cc(C(F)(F)F)nn1CC(=O)N1CCC(c2nc(CS(=O)(=O)c3cccc4cccnc34)cs2)CC1 [Compound I-9, 1-(4-{4-[(Quinolin-8-ylsulphonyl)methyl]-1,3-thiazol-2-yl}piperidin-1-yl)-2-[5-methyl-3-(trifluoromethyl)-1H-pyrazol-1-yl]ethanone]",–,≥ 70,2.63,2.63,–
"Cc1cc(C(F)(F)F)nn1CC(=O)N1CCC(c2nc(C[S+]([O-])c3cccc4ccccc34)cs2)CC1 (stereo not drawn) [Compound I-13, 2-[5-Methyl-3-(trifluoromethyl)-1H-pyrazol-1-yl]-1-(4-{4-[(1-naphthylsulphinyl)methyl]-1,3-thiazol-2-yl}piperidin-1-yl)ethanone]",–,≥ 70,2.86,2.86,–
"Cc1cc(C(F)(F)F)nn1CC(=O)N1CCC(c2nc(CS(=O)(=O)c3cccc4ccccc34)cs2)CC1 [Compound I-10, 2-[5-Methyl-3-(trifluoromethyl)-1H-pyrazol-1-yl]-1-(4-{4-[(1-naphthylsulphonyl)methyl]-1,3-thiazol-2-yl}piperidin-1-yl)ethanone]",–,≥ 70,3.21,3.19,–
"Cc1cc(C(F)(F)F)nn1CC(=O)N1CCC(c2nc(CSC3CCCCC3)cs2)CC1 [Compound I-3, 1-(4-{4-[(Cyclohexylsulphanyl)methyl]-1,3-thiazol-2-yl}piperidin-1-yl)-2-[5-methyl-3-(trifluoromethyl)-1H-pyrazol-1-yl]ethanone]",–,≥ 70,4.3,4.3,–
"Cc1cc(C(F)(F)F)nn1CC(=O)N1CCC(c2nc(CS(=O)(=O)C3CCCCC3)cs2)CC1 [Compound I-7, 1-(4-{4-[(Cyclohexylsulphonyl)methyl]-1,3-thiazol-2-yl}piperidin-1-yl)-2-[5-methyl-3-(trifluoromethyl)-1H-pyrazol-1-yl]ethanone]",–,≥ 70,2.9,2.9,2.87
